From the supplement of paper PMC13380429

Key:
[1] = test system: A549-ACE2 infected with SARS-CoV-2; assay: cell count relative to DMSO; higher = less toxic; conditions: 24 h
Caco-2 [2] = assay: cell viability relative to DMSO; higher = less toxic; conditions: 72 h
Calu-3 [3] = assay: as above; conditions: 72 h
HepG2 [4] = assay: as above; conditions: 72 h
U2OS [5] = assay: as above; conditions: 72 h
Vero E6 [6] = assay: as above; conditions: 72 h
[7] = test system: A549-ACE2 infected with SARS-CoV-2; assay: SARS-CoV-2 infection rate relative to DMSO; higher = more infection; conditions: 24 h
A549-ACE2 [8] = assay: drug-induced phospholipidosis relative to tamoxifen; higher = more phospholipidosis
[9] = test system: A549-ACE2 infected with SARS-CoV-2; assay: morphology score (similarity to uninfected cells); higher = more like uninfected cells; conditions: 24 h
Caco-2 [10] = assay: relative viability EC50 (midpoint between 100% and the lowest measured viability); higher = less toxic; conditions: 72 h
Calu-3 [11] = assay: as above; conditions: 72 h
HepG2 [12] = assay: as above; conditions: 72 h
U2OS [13] = assay: as above; conditions: 72 h
Vero E6 [14] = assay: as above; conditions: 72 h
Caco-2 [15] = assay: drug sensitivity score (DSS) for viability; higher = more toxic; extreme values may be limits of the assay; conditions: 72 h
Calu-3 [16] = assay: as above; conditions: 72 h
HepG2 [17] = assay: as above; conditions: 72 h
U2OS [18] = assay: as above; conditions: 72 h
Vero E6 [19] = assay: as above; conditions: 72 h
A549-ACE2 [20] = assay: phospholipidosis EC50; higher = less potent phospholipidosis inducer

OC(CCN1CCCCC1)(c1ccccc1)C1CC2C=CC1C2 (configuration not stated) [biperiden]
Conditions | SARS-CoV-2 infection rate, [7] [%] | cell count, [1] [%] | cell viability, Caco-2 [2] [%] | cell viability, Calu-3 [3] [%] | cell viability, HepG2 [4] [%] | cell viability, U2OS [5] [%] | cell viability, Vero E6 [6] [%] | morphology score, [9]
1 nM | – | – | 93.2 | 103 | 93.3 | 99.4 | 92.7 | –
10 nM | – | – | 96 | 108 | 108 | 101 | 95.8 | –
100 nM | – | – | 99 | 108 | 99.5 | 102 | 95.2 | –
0.3 µM | 106 | 100 | – | – | – | – | – | -0.01
1000 nM | – | – | 97.9 | 101 | 110 | 97 | 96.2 | –
3 µM | 76 | 107 | – | – | – | – | – | 0.49
10 µM | 55 | 112 | – | – | – | – | – | 0.74
10000 nM | – | – | 104 | 95.4 | 97.2 | 95.3 | 101 | –
30 µM | 44 | 113 | – | – | – | – | – | 0.76

drug-induced phospholipidosis [%], A549-ACE2 [8]
Conditions | 0.3 µM | 0.833333 µM | 3.33333 µM | 6.66667 µM | 10 µM | 30 µM
24 h | 6.44 | 3.39 | 3.47 | 5.73 | 10.9 | 32.9
48 h | 5.46 | -0.33 | 0.38 | 9.63 | 13.4 | 30.6
72 h | 8.44 | 0.683 | 2.98 | 6.62 | 5.63 | 27.3

Conditions | drug sensitivity score | relative viability EC50 [µM]
Caco-2 [10] | – | > 10
Caco-2 [15] | 0 | –
Calu-3 [11] | – | > 10
Calu-3 [16] | 0 | –
HepG2 [12] | – | > 10
HepG2 [17] | 0 | –
U2OS [13] | – | > 10
U2OS [18] | 0 | –
Vero E6 [14] | – | > 10
Vero E6 [19] | 0 | –

C=C[C@@]1(C)CC(=O)[C@]2(O)[C@@]3(C)[C@@H](O)CCC(C)(C)[C@@H]3[C@H](OC(=O)CCN(C)C)[C@H](OC(C)=O)[C@@]2(C)O1 [colforsin-daproate]
Conditions | SARS-CoV-2 infection rate, [7] [%] | cell count, [1] [%] | cell viability, Caco-2 [2] [%] | cell viability, Calu-3 [3] [%] | cell viability, HepG2 [4] [%] | cell viability, U2OS [5] [%] | cell viability, Vero E6 [6] [%] | morphology score, [9]
1 nM | – | – | 101 | 103 | 93.9 | 105 | 98 | –
10 nM | – | – | 98.9 | 95.5 | 100 | 103 | 93.9 | –
0.1 µM | 88 | 99 | – | – | – | – | – | 0.33
100 nM | – | – | 109 | 99.2 | 94 | 102 | 96.5 | –
0.3 µM | 98 | 105 | – | – | – | – | – | 0.05
1 µM | 106 | 105 | – | – | – | – | – | -0.06
1000 nM | – | – | 94 | 106 | 100 | 101 | 90.5 | –
3 µM | 108 | 104 | – | – | – | – | – | -0.03
10000 nM | – | – | 89.1 | 98.9 | 95.3 | 97.3 | 77 | –

drug-induced phospholipidosis [%], A549-ACE2 [8]
Conditions | 0.3 µM | 0.833333 µM | 3.33333 µM | 6.66667 µM | 10 µM | 30 µM
24 h | -0.11 | -0.39 | -2.43 | 1 | 1.72 | 23.6
48 h | 0.82 | -1.25 | -1.96 | 0.45 | 2.53 | 34.6
72 h | 2.97 | -1.9 | -2.38 | -1.51 | 0.457 | –

Conditions | drug sensitivity score | relative viability EC50 [µM]
Caco-2 [10] | – | > 10
Caco-2 [15] | 0.1 | –
Calu-3 [11] | – | > 10
Calu-3 [16] | 0 | –
HepG2 [12] | – | > 10
HepG2 [17] | 0 | –
U2OS [13] | – | > 10
U2OS [18] | 0 | –
Vero E6 [14] | – | > 10
Vero E6 [19] | 1.3 | –

COc1c(OCCCN2CCOCC2)ccc2c1N=C(NC(=O)c1cnc(N)nc1)N1CCN=C21 [copanlisib]
Conditions | SARS-CoV-2 infection rate, [7] [%] | cell count, [1] [%] | cell viability, Caco-2 [2] [%] | cell viability, Calu-3 [3] [%] | cell viability, HepG2 [4] [%] | cell viability, U2OS [5] [%] | cell viability, Vero E6 [6] [%] | morphology score, [9]
1 nM | – | – | 99.2 | 102 | 98.5 | 101 | 98.8 | –
10 nM | – | – | 98.7 | 93.1 | 109 | 96.2 | 105 | –
0.1 µM | 101 | 101 | – | – | – | – | – | 0.23
100 nM | – | – | 94.6 | 95.4 | 101 | 98.2 | 96 | –
0.3 µM | 97 | 100 | – | – | – | – | – | 0.09
1 µM | 90 | 98 | – | – | – | – | – | 0.35
1000 nM | – | – | 86.9 | 73.4 | 71 | 96.9 | 89.8 | –
3 µM | 92 | 83 | – | – | – | – | – | 0.32
10000 nM | – | – | 34.9 | 32.9 | 51.9 | 67.5 | 65.1 | –

drug-induced phospholipidosis [%], A549-ACE2 [8]
Conditions | 0.3 µM | 0.833333 µM | 3.33333 µM | 6.66667 µM | 10 µM | 30 µM
24 h | -3.17 | -4.37 | 0.15 | 5.67 | 10.8 | 56.5
48 h | -1.4 | -3.62 | 0.68 | 3.97 | 5.69 | –
72 h | -0.924 | -3.86 | 0.214 | 2.05 | – | –

Conditions | drug sensitivity score | relative viability EC50 [µM]
Caco-2 [10] | – | 1.73
Caco-2 [15] | 5.7 | –
Calu-3 [11] | – | 1.26
Calu-3 [16] | 6.8 | –
HepG2 [17] | 6 | –
U2OS [18] | 2 | –
Vero E6 [19] | 2.9 | –

CCN1CCC(n2cc(CNc3cc(Cl)c4ncc(C#N)c(Nc5ccc(F)c(Cl)c5)c4c3)nn2)CC1 [cot-inhibitor-2]
Conditions | SARS-CoV-2 infection rate, [7] [%] | cell count, [1] [%] | cell viability, Caco-2 [2] [%] | cell viability, Calu-3 [3] [%] | cell viability, HepG2 [4] [%] | cell viability, U2OS [5] [%] | cell viability, Vero E6 [6] [%] | morphology score, [9]
1 nM | – | – | 105 | 110 | 102 | 102 | 95.7 | –
10 nM | – | – | 99.9 | 92 | 109 | 96.4 | 101 | –
100 nM | – | – | 93.3 | 111 | 91.3 | 97.4 | 101 | –
0.3 µM | 93 | 102 | – | – | – | – | – | 0.17
1000 nM | – | – | 94.6 | 96.6 | 100 | 93.2 | 99.8 | –
3 µM | 47 | 112 | – | – | – | – | – | 0.77
10 µM | 26 | 66 | – | – | – | – | – | 0.43
10000 nM | – | – | 47.4 | 87 | 43.9 | 66 | 81.6 | –

drug-induced phospholipidosis [%], A549-ACE2 [8]
Conditions | 0.3 µM | 0.833333 µM | 3.33333 µM | 6.66667 µM
24 h | -0.44 | -4.12 | -0.13 | 29.3
48 h | -2.64 | -3.78 | 2.2 | –
72 h | 1.59 | -0.868 | 0.286 | –

Conditions | drug sensitivity score | relative viability EC50 [µM]
Caco-2 [10] | – | 2.31
Caco-2 [15] | 3.7 | –
Calu-3 [11] | – | > 10
Calu-3 [16] | 0.3 | –
HepG2 [12] | – | 3.19
HepG2 [17] | 3 | –
U2OS [18] | 2.7 | –
Vero E6 [14] | – | > 10
Vero E6 [19] | 0.5 | –

CCN(CC)CCCC(C)Nc1c2ccc(Cl)cc2nc2ccc(OC)cc12 (configuration not stated) [mepacrine]
Conditions | morphology score, 0.1 µM | morphology score, 0.3 µM | morphology score, 1 µM | morphology score, 3 µM | phospholipidosis EC50, 24 h [µM] | phospholipidosis EC50, 48 h [µM] | phospholipidosis EC50, 72 h [µM]
A549-ACE2 [20] | – | – | – | – | 15.8 | 5.62 | 3
[9] | 0.52 | 0.52 | 0.63 | 0.79 | – | – | –

Conditions | drug sensitivity score
Calu-3 [16] | 5.7
HepG2 [17] | 8.9
U2OS [18] | 4
Vero E6 [19] | 7.2
